Where a name gives a salt, the structure may show the parent alone.
Legend:
lymphocytes = assay: Multiple ascending dose study: lymphocyte counts; format: in vivo, human; conditions: for Lymphocytes On Treatment Mean (SD) / Lymphocytes Percent Change from Baseline Mean / Lymphocytes Percent Change from Baseline Median / Lymphocytes Percent Change from Baseline Min, Max: day 21
Procedure: (§1) A randomized, double-blind, placebo-controlled, sequential, ascending, multiple dose study to assess the safety, tolerability, and pharmacokinetics of the L-arginine salt of Compound 1 administered to healthy adult subjects was conducted. This study was designed to evaluate the safety, tolerability, pharmacokinetics, and pharmacodynamics of the L-arginine salt of Compound 1.
(§2) Cohort 1 was dosed with 0.7 mg (by administering two 0.35 mg formulations) for 21 days. Cohort 2 was dosed with 1.35 mg (by administering both a 0.35 mg formulation and a 1 mg formulation) for 21 days. Cohort 3 was dosed with 2.0 mg for 21 days. Cohort 4 was dosed with 0.35 mg for 7 days and then with 2.0 mg for 14 days. Cohort 5 was dosed with 0.5 for 7 days and then with 3.0 mg (by administering both a 1 mg formulation and a 2 mg formulation) for 14 days.

healthy adult subjects = assay: Multiple ascending dose study: heart rate, blood pressure, QTc; format: in vivo, human; conditions: for Maximum post-dose QTc, Change from Baseline Mean / Maximum post-dose QTc, Change from Baseline Median / Maximum post-dose QTc, Change from Baseline Min, Max / Maximum post-dose QTc, On Treatment Mean (SD): Day 1 to Day 23; for Minimum post-dose Diastolic BP, Change from Baseline Mean / Minimum post-dose Diastolic BP, Change from Baseline Median / Minimum post-dose Diastolic BP, Change from Baseline Min, Max / Minimum post-dose Diastolic BP, On Treatment Mean (SD) / Minimum post-dose Heart Rate, Change from Baseline Mean / Minimum post-dose Heart Rate, Change from Baseline Median / Minimum post-dose Heart Rate, Change from Baseline Min, Max / Minimum post-dose Heart Rate, On Treatment Mean (SD) / Minimum post-dose Systolic BP, Change from Baseline Mean / Minimum post-dose Systolic BP, Change from Baseline Median / Minimum post-dose Systolic BP, Change from Baseline Min, Max / Minimum post-dose Systolic BP, On Treatment Mean: Day 1 to Day 28
Procedure: as §1, §2
The following safety assessments were conducted: physical examinations with ophthalmoscopy, clinical laboratory tests (serum chemistry, coagulation, and urinalysis), vital signs, continuous telemetry (12 lead ECG), safety ECGs, pulmonary function testing (PFT), serum protein electrophoresis (SPEP) and serum immunoelectrophoresis (IEP), and adverse event reporting.

[1] = 0.35 mg for 7 days then 2.0 mg for 14 days
[2] = 0.5 mg for 7 days then 3.0 mg for 14 days

O=C(O)C[C@H]1CCc2c1[nH]c1ccc(OCc3ccc(C4CCCC4)c(C(F)(F)F)c3)cc21 [L-arginine salt of Compound 1]
Lymphocytes On Treatment Mean (SD) (lymphocytes; [1]): 0.62 (0.18) 10^3/μl | Lymphocytes Percent Change from Baseline Mean (lymphocytes; [1]): −67.34% | Lymphocytes Percent Change from Baseline Median (lymphocytes; [1]): −67.54% | Lymphocytes Percent Change from Baseline Min, Max (lymphocytes; [1]): −77.27 to −57.14% | Lymphocytes On Treatment Mean (SD) (lymphocytes; [2]): 0.62 (0.25) 10^3/μl | Lymphocytes Percent Change from Baseline Mean (lymphocytes; [2]): −66.16% | Lymphocytes Percent Change from Baseline Median (lymphocytes; [2]): −65.02% | Lymphocytes Percent Change from Baseline Min, Max (lymphocytes; [2]): −85.19 to −53.85% | Lymphocytes On Treatment Mean (SD) (lymphocytes; 0.7 mg for 21 days): 1.06 (0.28) 10^3/μl | Lymphocytes Percent Change from Baseline Mean (lymphocytes; 0.7 mg for 21 days): −41.03% | Lymphocytes Percent Change from Baseline Median (lymphocytes; 0.7 mg for 21 days): −40.37% | Lymphocytes Percent Change from Baseline Min, Max (lymphocytes; 0.7 mg for 21 days): −55.56 to −23.08% | Lymphocytes On Treatment Mean (SD) (lymphocytes; 1.35 mg for 21 days): 0.89 (0.32) 10^3/μl | Lymphocytes Percent Change from Baseline Mean (lymphocytes; 1.35 mg for 21 days): −53.43% | Lymphocytes Percent Change from Baseline Median (lymphocytes; 1.35 mg for 21 days): −51.85% | Lymphocytes Percent Change from Baseline Min, Max (lymphocytes; 1.35 mg for 21 days): −68.75 to −30.77% | Lymphocytes On Treatment Mean (SD) (lymphocytes; 2.0 mg for 21 days): 0.62 (0.18) 10^3/μl | Lymphocytes Percent Change from Baseline Mean (lymphocytes; 2.0 mg for 21 days): −68.81% | Lymphocytes Percent Change from Baseline Median (lymphocytes; 2.0 mg for 21 days): −69.44% | Lymphocytes Percent Change from Baseline Min, Max (lymphocytes; 2.0 mg for 21 days): −80.00 to −55.56% | dose with maximal effect on lymphocyte lowering (dose-dependent) (lymphocytes; multiple dosing 21 days): 2 mg | Maximum post-dose QTc, Change from Baseline Mean (healthy adult subjects; [1]): −0.10 MS | Maximum post-dose QTc, Change from Baseline Median (healthy adult subjects; [1]): 0.50 MS | Maximum post-dose QTc, Change from Baseline Min, Max (healthy adult subjects; [1]): −19.00 to 17.00 MS | Maximum post-dose QTc, On Treatment Mean (SD) (healthy adult subjects; [1]): 411.10 (19.88) MS | Maximum post-dose QTc, Change from Baseline Mean (healthy adult subjects; [2]): 5.60 MS | Maximum post-dose QTc, Change from Baseline Median (healthy adult subjects; [2]): 5.00 MS | Maximum post-dose QTc, Change from Baseline Min, Max (healthy adult subjects; [2]): −5.00 to 15.00 MS | Maximum post-dose QTc, On Treatment Mean (SD) (healthy adult subjects; [2]): 425.10 (13.90) MS | Maximum post-dose QTc, Change from Baseline Mean (healthy adult subjects; 0.7 mg for 21 days): 3.60 MS | Maximum post-dose QTc, Change from Baseline Median (healthy adult subjects; 0.7 mg for 21 days): 3.50 MS | Maximum post-dose QTc, Change from Baseline Min, Max (healthy adult subjects; 0.7 mg for 21 days): −8.00 to 16.00 MS | Maximum post-dose QTc, On Treatment Mean (SD) (healthy adult subjects; 0.7 mg for 21 days): 418.40 (16.56) MS | Maximum post-dose QTc, Change from Baseline Mean (healthy adult subjects; 1.35 mg for 21 days): 8.20 MS | Maximum post-dose QTc, Change from Baseline Median (healthy adult subjects; 1.35 mg for 21 days): 6.00 MS | Maximum post-dose QTc, Change from Baseline Min, Max (healthy adult subjects; 1.35 mg for 21 days): −5.00 to 25.00 MS | Maximum post-dose QTc, On Treatment Mean (SD) (healthy adult subjects; 1.35 mg for 21 days): 423.60 (16.14) MS | Maximum post-dose QTc, Change from Baseline Mean (healthy adult subjects; 2.0 mg for 21 days): 4.00 MS | Maximum post-dose QTc, Change from Baseline Median (healthy adult subjects; 2.0 mg for 21 days): 4.50 MS | Maximum post-dose QTc, Change from Baseline Min, Max (healthy adult subjects; 2.0 mg for 21 days): −8.00 to 13.00 MS | Maximum post-dose QTc, On Treatment Mean (SD) (healthy adult subjects; 2.0 mg for 21 days): 421.20 (10.61) MS | Minimum post-dose Diastolic BP, Change from Baseline Mean (healthy adult subjects; [1]): −7.90 mmHg | Minimum post-dose Diastolic BP, Change from Baseline Median (healthy adult subjects; [1]): −6.00 mmHg | Minimum post-dose Diastolic BP, Change from Baseline Min, Max (healthy adult subjects; [1]): −19.00 to −1.00 mmHg | Minimum post-dose Diastolic BP, On Treatment Mean (SD) (healthy adult subjects; [1]): 50.80 (5.65) mmHg | Minimum post-dose Heart Rate, Change from Baseline Mean (healthy adult subjects; [1]): −10.60 BPM | Minimum post-dose Heart Rate, Change from Baseline Median (healthy adult subjects; [1]): −7.00 BPM | Minimum post-dose Heart Rate, Change from Baseline Min, Max (healthy adult subjects; [1]): −35.00 to 3.00 BPM | Minimum post-dose Heart Rate, On Treatment Mean (SD) (healthy adult subjects; [1]): 52.00 (4.74) BPM | Minimum post-dose Systolic BP, Change from Baseline Mean (healthy adult subjects; [1]): −13.00 mmHg | Minimum post-dose Systolic BP, Change from Baseline Median (healthy adult subjects; [1]): −13.00 mmHg | Minimum post-dose Systolic BP, Change from Baseline Min, Max (healthy adult subjects; [1]): −28.00 to 0.00 mmHg | Minimum post-dose Systolic BP, On Treatment Mean (healthy adult subjects; [1]): 94.30 mmHg | Minimum post-dose Diastolic BP, Change from Baseline Mean (healthy adult subjects; [2]): −6.30 mmHg | Minimum post-dose Diastolic BP, Change from Baseline Median (healthy adult subjects; [2]): −7.00 mmHg | Minimum post-dose Diastolic BP, Change from Baseline Min, Max (healthy adult subjects; [2]): −13.00 to 3.00 mmHg | Minimum post-dose Diastolic BP, On Treatment Mean (SD) (healthy adult subjects; [2]): 50.20 (4.21) mmHg | Minimum post-dose Heart Rate, Change from Baseline Mean (healthy adult subjects; [2]): −7.30 BPM | Minimum post-dose Heart Rate, Change from Baseline Median (healthy adult subjects; [2]): −6.50 BPM | Minimum post-dose Heart Rate, Change from Baseline Min, Max (healthy adult subjects; [2]): −14.00 to −2.00 BPM | Minimum post-dose Heart Rate, On Treatment Mean (SD) (healthy adult subjects; [2]): 53.80 (4.73) BPM | Minimum post-dose Systolic BP, Change from Baseline Mean (healthy adult subjects; [2]): −7.80 mmHg | Minimum post-dose Systolic BP, Change from Baseline Median (healthy adult subjects; [2]): −5.00 mmHg | Minimum post-dose Systolic BP, Change from Baseline Min, Max (healthy adult subjects; [2]): −18.00 to 5.00 mmHg | Minimum post-dose Systolic BP, On Treatment Mean (healthy adult subjects; [2]): 93.20 mmHg | Minimum post-dose Diastolic BP, Change from Baseline Mean (healthy adult subjects; 0.7 mg for 21 days): −6.10 mmHg | Minimum post-dose Diastolic BP, Change from Baseline Median (healthy adult subjects; 0.7 mg for 21 days): −6.00 mmHg | Minimum post-dose Diastolic BP, Change from Baseline Min, Max (healthy adult subjects; 0.7 mg for 21 days): −16.00 to 2.00 mmHg

From patent publication US20220023258A1, “METHODS OF TREATING CONDITIONS RELATED TO THE S1P1 RECEPTOR” (Arena Pharmaceuticals, Inc., priority 2018, published 2022)
